Measurements from patent US20210353566A1, “THE USE OF CHOLINE SUPPLEMENTATION AS THERAPY FOR APOE4-RELATED DISORDERS” (Massachusetts Institute of Technology, priority 2020, published 2021).

Legend:
APOE4-expressing yeast = assay: Growth rate of APOE4-expressing yeast in minimal CSM media; type: cell-based; settings: ethanolamine 1 mM, choline chloride 1 mM, choline bitartrate 100 μg/ml, compared to APOE3 strain
From the text: The data was normalized to the growth of untreated yeast strain expressing GFP (control). Data are represented as mean±SD, n=3. […] Data is represented as mean±SD, n=6 (Student's t-test, ns p>0.05; *** p≤0.001).
In order to explore APOE4-mediated lipid dysregulation in an unbiased manner, yeast were built and interrogated that express APOE3 or APOE4 in to the secretory pathway.

APOE4 astrocytes [1] = assay: Lipid droplet number (LipidTox) in iPSC-derived APOE4 astrocytes in supplemented media; type: cell-based, human; settings: for LD number per cell: APOE4 astrocytes, supplemented media (CDP-choline 100 μM) vs vehicle
Protocol: (§1) Right, quantification of the lipid droplet number per cell (n=4 experiments). […] Lipid were extracted from APOE3 and APOE4 iPSC-derived astrocytes grown in a regular media or the media supplemented with CDP-choline (100 μM). Data is represented as mean±SD, n=3 experiments.

EFAD mice = test system: EFAD mice
From the text: FIGS. 7A-7C show graphs depicting mice weight over time. FIG. 7A depicts mice fed a high choline diet (3.4 g/kg choline chloride) and minimum recommended choline diet (0.7 g/kg choline chloride) for one month. FIG. 7B depicts mice fed a sub-recommended choline diet (0.1 g/kg choline chloride) compared to standard choline (1.1 g/kg choline chloride) for one month. FIG. 7C depicts mice fed a high choline diet (3.4 g/kg choline chloride) and minimum recommended choline diet (0.7 g/kg choline chloride) for three months.
The “EFAD” APOE knock-in mouse were selected, where the endogenous Apoe locus is replaced with the human isoform of APOE2, APOE3, or APOE4 in 5×FAD mice, and where APOE isoform effects on disease progression have been documented (Tai et al, 2017). Custom chow containing the National Research Council (NRC) minimum, (0.7 g/kg choline chloride) and NRC maximum (3.4 g/kg choline chloride) was manufactured and fed these to EFAD mice for 4-12 weeks (˜84 days).

APOE4 microglia = settings: interferon gamma
From the text: Data is represented as mean±SD, n=3-5 (ANOVA with multiple comparisons, * p≤0.05, ** p≤0.01).
Many AD risk factors are expressed in microglia including APOE, which along with TREM2, coordinates the transition from homeostatic to disease-associated state (Kraseman et al, 2017; Keren-Shaul et al, 2017).

APOE4 astrocytes [2] = assay: Lipid droplet quantification (LipidTox) in iPSC-derived astrocytes treated with oleic acid; type: cell-based, human; settings: oleic acid 20 μM vs vehicle
From the text: (§2) FIG. 1A is a schematic depicting the use of isogenic astrocytes derived from patient-derived iPSCs and the lipidomic analysis. FIG. 1B is a heatmap showing the fold change (log 2) between APOE4/APOE4 and APOE3/APOE3 in abundance of phospholipids (˜150 lipid species, upper panel) and triglycerides (˜120 species, lower panel). FIG. 1C is a graph presenting a fold change difference of the number of unsaturated bonds in fatty acids attached to triglycerides (TAGs). […] Data is represented as mean±SD (Student's t-test, **** p≤0.0001). FIG. 1E is a fluorescent microscopy images of the APOE3/APOE3 and APOE4/APOE4 astrocytes stained with an anti-Perilipin 2 antibody. Right, quantification of the Perilipin-2 foci per cell (each point (n) is an average of four wells, n=4). Data is represented as mean±SD (Student's t-test, **** p≤0.0001). FIG. 1F is a quantification of lipid droplets in astrocytes treated with vehicle (control) or with oleic acid (20 μM) (n=4 experiments).
(§3) APOE is expressed in several organs, with the highest expression in the liver, followed by the brain. In the brain, astrocytes and to some extent microglia are the major cell types that express APOE in the brain (Kim, Basak et al. 2009). It was hypothesized that APOE4-mediated lipid dysregulation contributes to its role as a disease risk factor. […]

APOE3 astrocytes = assay: as above; type: cell-based, human; settings: oleic acid 20 μM vs vehicle
From the text: as §2, §3

APOE4 astrocytes [3] = assay: Intracellular TAGs and their unsaturation extracted from iPSC-derived astrocytes; type: cell-based, human; settings: CDP-choline 100 μM vs regular media
Protocol: as §1

[4] = chow 0.7 g/kg and 3.4 g/kg choline chloride, 4-12 weeks
[5] = diets 0.1, 0.7, 1.1, 3.4 g/kg choline chloride, one or three months

## NCCO [ethanolamine]
APOE4-expressing yeast
  growth of APOE4 yeast in supplemented media: did not influence growth

## C[N+](C)(C)CCO.[Cl-] [choline chloride]
APOE4 astrocytes [1]
  LD number per cell: significant decrease in the LD number, down to the levels found in APOE3-expressing astrocytes
APOE4 astrocytes [1]; choline chloride 1 μM, 10 μM, 100 μM in astrocyte media, extended culture 14 days
  lipid droplet accumulation, dose dependence: improves lipid droplet accumulation in a dose-dependent manner
APOE4-expressing yeast
  growth of APOE4 yeast in supplemented media: sufficient to suppress the APOE4-associated growth defect
EFAD mice; [4]
  general health: general health appeared normal
  toxicity: no clear indication of toxicity
EFAD mice; [5]
  body condition or appetite: no significant defects
  mice weight over time: gained appropriate weight
APOE4 microglia; supplemented 65 μM Choline Chloride vs low 15 μM, extended culture
  lipid droplet volume, APOE4 vs APOE3 microglia: no difference is detected
APOE4 microglia; supplemented 250 μM Choline Chloride vs low 65 μM
  IL-1b induction: rescued

## C[N+](C)(C)CCO.O=C([O-])C(O)C(O)C(=O)O (stereo not shown) [choline bitartrate]
APOE4-expressing yeast
  growth of APOE4 yeast in supplemented media: sufficient to suppress the APOE4-associated growth defect

## CCCCCCCC/C=C\CCCCCCCC(=O)O [oleic acid]
APOE4 astrocytes [2]
  lipid droplet accumulation: ~3 fold
APOE3 astrocytes
  increase of lipid droplet content: ~1.5 fold

## C[N+](C)(C)CCOP(=O)(O)OP(=O)([O-])OC[C@H]1O[C@@H](n2ccc(N)nc2=O)[C@H](O)[C@@H]1O [CDP-choline]
APOE4 astrocytes [1]
  LD number per cell: significant decrease in the LD number, down to the levels found in APOE3-expressing astrocytes
APOE4 astrocytes [3]
  intracellular TAG levels: normalizes
  unsaturation of TAGs (number of unsaturated bonds in fatty acids): normalizes
